Reference: ChEMBL document CHEMBL1201862, “PubChem BioAssay data set” (2004)
Active and inactive are the calls of the source.

Key:
[1] = target: T1, Lysine-specific demethylase 4C (Homo sapiens, UniProt Q9H3R0); test: GASC-1 (JMJD2C) histone demethylase inhibitors, dose response, biochemical, DELFIA europium, cherry-picked samples (AID 488835); assay type: functional
T1 sequence (Q9H3R0 whole entry): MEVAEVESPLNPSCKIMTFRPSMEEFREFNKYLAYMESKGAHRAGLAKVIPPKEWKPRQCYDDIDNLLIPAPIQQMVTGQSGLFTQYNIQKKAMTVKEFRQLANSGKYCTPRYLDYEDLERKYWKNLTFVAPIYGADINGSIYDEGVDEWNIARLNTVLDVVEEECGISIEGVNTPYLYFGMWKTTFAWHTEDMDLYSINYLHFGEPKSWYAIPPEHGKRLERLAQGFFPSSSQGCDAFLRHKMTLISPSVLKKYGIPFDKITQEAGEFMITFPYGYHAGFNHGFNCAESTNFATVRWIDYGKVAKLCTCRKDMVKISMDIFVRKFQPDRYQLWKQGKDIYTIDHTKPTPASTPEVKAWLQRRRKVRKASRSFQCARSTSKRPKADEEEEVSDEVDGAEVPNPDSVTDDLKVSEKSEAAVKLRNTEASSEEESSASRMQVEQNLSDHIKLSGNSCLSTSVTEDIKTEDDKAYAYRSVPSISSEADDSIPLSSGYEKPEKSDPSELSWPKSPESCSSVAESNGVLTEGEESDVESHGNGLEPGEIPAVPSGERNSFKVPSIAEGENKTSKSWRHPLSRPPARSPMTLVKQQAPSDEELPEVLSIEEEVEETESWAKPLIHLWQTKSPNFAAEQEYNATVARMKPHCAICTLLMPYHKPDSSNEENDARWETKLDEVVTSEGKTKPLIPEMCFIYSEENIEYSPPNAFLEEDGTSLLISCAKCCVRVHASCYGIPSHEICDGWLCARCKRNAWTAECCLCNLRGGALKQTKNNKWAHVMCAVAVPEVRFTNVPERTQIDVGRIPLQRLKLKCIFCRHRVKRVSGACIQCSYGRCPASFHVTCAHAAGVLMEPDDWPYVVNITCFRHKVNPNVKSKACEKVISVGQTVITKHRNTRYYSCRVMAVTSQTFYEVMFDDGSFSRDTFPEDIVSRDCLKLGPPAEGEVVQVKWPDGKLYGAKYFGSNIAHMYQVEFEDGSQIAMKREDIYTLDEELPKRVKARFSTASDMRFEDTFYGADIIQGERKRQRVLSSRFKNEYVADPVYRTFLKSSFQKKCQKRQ

[2] = target: T2, Protein RecA (Mycobacterium tuberculosis, UniProt P9WHJ3); test: Fluorescence Cell-Free Homogeneous Dose Retest to Identify Inhibitors of RecA-Intein Splicing Activity. [Related pubchem assays (depositor defined):AID2097, AID2223, AID489010, AID492950]; assay type: functional
T2 sequence (P9WHJ3 whole entry): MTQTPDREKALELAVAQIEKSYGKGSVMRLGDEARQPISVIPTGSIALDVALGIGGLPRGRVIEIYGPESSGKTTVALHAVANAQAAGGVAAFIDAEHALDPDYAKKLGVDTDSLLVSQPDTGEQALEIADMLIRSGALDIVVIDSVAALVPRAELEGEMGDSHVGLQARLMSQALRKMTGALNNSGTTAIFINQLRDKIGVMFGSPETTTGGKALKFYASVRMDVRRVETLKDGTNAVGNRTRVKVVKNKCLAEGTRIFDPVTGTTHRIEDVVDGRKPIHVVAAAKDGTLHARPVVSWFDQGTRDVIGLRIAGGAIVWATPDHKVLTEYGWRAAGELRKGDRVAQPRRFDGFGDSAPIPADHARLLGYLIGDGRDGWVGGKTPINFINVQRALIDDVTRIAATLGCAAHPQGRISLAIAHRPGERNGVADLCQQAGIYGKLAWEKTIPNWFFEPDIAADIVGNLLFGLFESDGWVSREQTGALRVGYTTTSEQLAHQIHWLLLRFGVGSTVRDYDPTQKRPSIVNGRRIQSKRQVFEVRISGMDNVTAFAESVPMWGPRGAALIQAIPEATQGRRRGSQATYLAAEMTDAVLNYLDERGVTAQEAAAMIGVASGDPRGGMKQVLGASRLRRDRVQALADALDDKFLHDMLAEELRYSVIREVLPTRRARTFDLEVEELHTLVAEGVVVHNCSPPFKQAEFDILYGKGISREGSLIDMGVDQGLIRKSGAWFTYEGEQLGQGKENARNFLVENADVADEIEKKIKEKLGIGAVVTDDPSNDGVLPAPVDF

[3] = target: T3, Replicative DNA helicase DnaB (Mycobacterium tuberculosis, UniProt P9WMR3); test: DnaB intein splicing inhibitors, dose response, biochemical, cell-free fluorescence (AID 449749); assay type: functional
T3 sequence (P9WMR3 whole entry): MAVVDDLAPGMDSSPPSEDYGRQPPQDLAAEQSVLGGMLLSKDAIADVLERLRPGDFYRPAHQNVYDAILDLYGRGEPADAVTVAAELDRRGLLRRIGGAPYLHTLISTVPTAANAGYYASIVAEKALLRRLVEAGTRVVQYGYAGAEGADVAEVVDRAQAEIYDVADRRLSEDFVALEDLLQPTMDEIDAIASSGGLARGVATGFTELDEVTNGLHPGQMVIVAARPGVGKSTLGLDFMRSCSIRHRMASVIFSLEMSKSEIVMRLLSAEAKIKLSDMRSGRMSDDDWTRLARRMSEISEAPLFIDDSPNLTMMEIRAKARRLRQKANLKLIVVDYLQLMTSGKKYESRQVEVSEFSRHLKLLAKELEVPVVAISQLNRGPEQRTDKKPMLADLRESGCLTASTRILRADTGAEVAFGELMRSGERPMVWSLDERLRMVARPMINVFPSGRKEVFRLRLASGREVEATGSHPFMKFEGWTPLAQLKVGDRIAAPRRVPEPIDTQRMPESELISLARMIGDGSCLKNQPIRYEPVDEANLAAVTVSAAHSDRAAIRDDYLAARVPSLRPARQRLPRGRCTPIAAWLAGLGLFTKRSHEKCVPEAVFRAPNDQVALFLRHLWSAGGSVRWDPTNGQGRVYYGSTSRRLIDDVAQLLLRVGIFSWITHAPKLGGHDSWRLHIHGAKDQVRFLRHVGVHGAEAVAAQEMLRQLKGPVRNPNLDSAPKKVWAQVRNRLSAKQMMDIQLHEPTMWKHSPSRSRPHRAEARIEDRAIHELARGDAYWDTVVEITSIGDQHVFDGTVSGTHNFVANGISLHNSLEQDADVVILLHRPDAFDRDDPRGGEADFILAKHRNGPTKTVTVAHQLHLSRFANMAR

[4] = target: Genome polyprotein (dengue virus type 2, UniProt P29990); test: Dengue-2 NS5 methyltransferase inhibitors, primary screen, biochemical, confirmation dose response (AID 588689); assay type: functional
Chain of Genome polyprotein (P29990 2492-3391 limits assumed): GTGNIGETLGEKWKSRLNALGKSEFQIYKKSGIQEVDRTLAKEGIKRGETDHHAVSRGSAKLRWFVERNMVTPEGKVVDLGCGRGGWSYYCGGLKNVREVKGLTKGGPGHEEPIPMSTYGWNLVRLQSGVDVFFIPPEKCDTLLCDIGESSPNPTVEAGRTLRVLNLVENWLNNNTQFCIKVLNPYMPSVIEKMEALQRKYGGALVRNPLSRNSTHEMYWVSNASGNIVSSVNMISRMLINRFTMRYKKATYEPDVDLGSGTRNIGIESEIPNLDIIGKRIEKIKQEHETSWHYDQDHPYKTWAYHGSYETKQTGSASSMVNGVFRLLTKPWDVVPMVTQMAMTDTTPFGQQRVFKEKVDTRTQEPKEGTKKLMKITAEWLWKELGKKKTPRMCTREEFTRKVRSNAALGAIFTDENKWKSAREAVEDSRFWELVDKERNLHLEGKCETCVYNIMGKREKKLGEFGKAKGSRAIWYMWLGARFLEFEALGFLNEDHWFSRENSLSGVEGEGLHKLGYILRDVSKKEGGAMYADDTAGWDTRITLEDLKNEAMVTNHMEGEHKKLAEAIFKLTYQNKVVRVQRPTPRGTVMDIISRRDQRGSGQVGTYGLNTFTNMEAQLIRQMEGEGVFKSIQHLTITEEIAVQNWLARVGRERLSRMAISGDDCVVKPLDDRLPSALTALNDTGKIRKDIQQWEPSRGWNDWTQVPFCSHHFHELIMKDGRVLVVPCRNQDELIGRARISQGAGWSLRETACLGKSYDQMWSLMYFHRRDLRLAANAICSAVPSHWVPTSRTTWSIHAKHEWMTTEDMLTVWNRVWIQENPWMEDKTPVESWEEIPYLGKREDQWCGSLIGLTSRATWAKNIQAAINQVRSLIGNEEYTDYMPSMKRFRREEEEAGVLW

[5] = system: Vero; test: cells; assay type: functional; conditions: Chlorocebus sabaeus
[6] = target: T4, Cytochrome P450 2C9 (Homo sapiens, UniProt P11712)
T4 sequence (P11712 whole entry): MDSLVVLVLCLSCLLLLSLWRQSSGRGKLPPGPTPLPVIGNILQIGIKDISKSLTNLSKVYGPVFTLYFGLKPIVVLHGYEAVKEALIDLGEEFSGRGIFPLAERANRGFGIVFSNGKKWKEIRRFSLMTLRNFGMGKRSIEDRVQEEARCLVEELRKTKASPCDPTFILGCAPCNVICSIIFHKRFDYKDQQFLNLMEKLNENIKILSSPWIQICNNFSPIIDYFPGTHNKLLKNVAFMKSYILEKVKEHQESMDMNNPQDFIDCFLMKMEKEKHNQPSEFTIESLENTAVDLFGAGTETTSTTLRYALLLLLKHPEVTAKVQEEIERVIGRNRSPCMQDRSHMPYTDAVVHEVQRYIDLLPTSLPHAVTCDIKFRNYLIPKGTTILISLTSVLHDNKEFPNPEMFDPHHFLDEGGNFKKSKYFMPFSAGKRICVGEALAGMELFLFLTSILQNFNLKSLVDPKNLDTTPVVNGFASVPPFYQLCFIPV

[7] = target: Eukaryotic translation initiation factor 4E (Mus musculus, UniProt P63073); test: eIF4E–eIF4G protein interaction inhibitors, dose response, biochemical, TR-FRET (AID 855); assay type: functional;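 further: potency for disrupting eIF4E binding to eIF4GI seen as loss of FRET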
Chain of Eukaryotic translation initiation factor 4E (P63073 whole entry): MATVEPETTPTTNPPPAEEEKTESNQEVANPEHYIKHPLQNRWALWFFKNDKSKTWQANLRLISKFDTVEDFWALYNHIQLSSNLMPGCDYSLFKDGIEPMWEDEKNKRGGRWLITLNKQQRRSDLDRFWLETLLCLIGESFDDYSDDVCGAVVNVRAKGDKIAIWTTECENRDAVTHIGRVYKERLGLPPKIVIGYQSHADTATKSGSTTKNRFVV

[8] = system: Vero; test: cells; assay type: functional, cell-based; conditions: Chlorocebus sabaeus
[9] = growth suppression of beta-catenin-knockout colon cells, dose response, cell-based, HCT116, human colon tumor (AID 1045); assay type: functional;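 further: HCT116 colon tumor cells with beta catenin knocked out; cells exposed to compound for 60 hours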
[10] = target: T5, High affinity choline transporter 1 (Homo sapiens, UniProt Q9GZV3); test: CHT inhibitors, dose response, cell-based, 10-point CRC, membrane potential dye (AID 588401); assay type: functional;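 further: membrane potential dye fluorescence of choline-evoked depolarization via CHT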
T5 sequence (Q9GZV3 whole entry): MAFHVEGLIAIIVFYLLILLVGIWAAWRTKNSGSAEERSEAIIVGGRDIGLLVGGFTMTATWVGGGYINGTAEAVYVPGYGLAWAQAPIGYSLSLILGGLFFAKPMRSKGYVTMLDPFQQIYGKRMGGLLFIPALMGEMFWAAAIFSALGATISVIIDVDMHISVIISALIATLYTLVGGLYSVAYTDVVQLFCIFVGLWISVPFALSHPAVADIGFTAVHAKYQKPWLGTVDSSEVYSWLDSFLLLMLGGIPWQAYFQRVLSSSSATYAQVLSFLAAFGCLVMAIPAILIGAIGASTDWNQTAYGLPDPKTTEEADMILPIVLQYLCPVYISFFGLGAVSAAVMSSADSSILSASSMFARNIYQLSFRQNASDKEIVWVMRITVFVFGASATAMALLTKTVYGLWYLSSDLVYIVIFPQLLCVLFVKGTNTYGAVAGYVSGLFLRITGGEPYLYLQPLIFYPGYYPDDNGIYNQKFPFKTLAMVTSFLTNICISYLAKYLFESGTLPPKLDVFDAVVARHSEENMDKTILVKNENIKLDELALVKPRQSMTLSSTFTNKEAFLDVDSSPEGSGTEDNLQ

[11] = target: T6, Heat shock factor protein 1 (Mus musculus, UniProt P38532); test: HSF1 potentiators in luciferase reporter cells, confirmation, cell-based, NIH3T3, luminescence, dose retest (AID 435004); assay type: functional;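 further: stress induced by proteasome inhibitor MG132 added 30 min after compound; luciferase reporter driven by HSF1 response element in NIH3T3 cells; actives raise luminescence as potentiators of the MG132 stress response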
T6 sequence (P38532 whole entry): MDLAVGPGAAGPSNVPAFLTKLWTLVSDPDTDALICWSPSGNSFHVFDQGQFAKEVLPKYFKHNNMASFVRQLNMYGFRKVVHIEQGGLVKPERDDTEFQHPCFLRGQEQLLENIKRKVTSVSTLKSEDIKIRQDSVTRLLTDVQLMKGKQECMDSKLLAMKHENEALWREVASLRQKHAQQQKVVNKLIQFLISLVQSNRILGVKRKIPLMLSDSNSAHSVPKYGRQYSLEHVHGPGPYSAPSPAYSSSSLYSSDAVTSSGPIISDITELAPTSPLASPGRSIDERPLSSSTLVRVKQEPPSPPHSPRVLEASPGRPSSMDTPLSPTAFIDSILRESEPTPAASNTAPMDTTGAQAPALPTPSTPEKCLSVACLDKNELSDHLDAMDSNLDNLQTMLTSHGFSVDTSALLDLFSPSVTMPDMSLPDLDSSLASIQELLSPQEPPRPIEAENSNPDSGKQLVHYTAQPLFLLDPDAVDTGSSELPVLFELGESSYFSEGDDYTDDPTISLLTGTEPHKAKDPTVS

[12] = growth suppression of PTEN-null colon cells, dose response, cell-based, HCT116 PTEN knockout (AID 1047); assay type: functional;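 further: HCT116 colon tumor cells with PTEN knocked out; cells exposed to compound for 60 hours before readout; potency for loss of cell viability measured by luminescence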
[13] = insulin promoter down-regulators in MIN6 cells, imaging, high-content screening, mouse beta cells (AID 1628); assay type: functional
[14] = cytotoxicity in MIN6 insulinoma cells, dose response, cytotoxicity control, cell-based, mouse insulinoma (AID 2122); assay type: functional;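 further: confirmatory high-throughput counterscreen run to flag cytotoxic compounds; mouse MIN-6 beta cells carrying an insulin promoter eGFP reporter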
[15] = target: T5, High affinity choline transporter 1; test: CHT inhibitors, dose response, cell-based, 5-point CRC, membrane potential dye (AID 504840); assay type: functional
[16] = cytotoxicity in KRAS-transformed pancreatic duct cells, primary screen, cell-based, fluorescence, HTS (AID 431); assay type: functional; conditions: Homo sapiens;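 further: cell line used: HPDE-C7K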
[17] = cytotoxicity toward NIH3T3 fibroblasts, dose response, counter-screen, cell-based, ATP luminescence, mouse fibroblasts (AID 2010); assay type: functional;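 further: cells exposed to compound for about 90 hours before reading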
[18] = cytotoxicity in HPDE-C7 cells, cell-based, fluorescence, HTS (AID 430); assay type: functional; conditions: Homo sapiens
[19] = inhibitors of intracellular T. cruzi replication, confirmation, NIH3T3 host cells, beta-gal luminescence (AID 2044); assay type: functional, cell-based;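 further: intracellular parasites grown in NIH/3T3 mouse fibroblasts as host cells; luminescent beta-galactosidase reporter signal from transgenic T. cruzi replicating inside host cells; inhibitors lower the luminescence signal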
[20] = cells; assay type: functional
[21] = Vero E6 cell cytotoxicity, dose response, cytotoxicity control for non-replicating M. tuberculosis project, secondary assay (AID 492998); assay type: functional, VeroE6; conditions: Vero C1008
[22] = THP-1 cell cytotoxicity, dose response, cytotoxicity control for non-replicating M. tuberculosis project (AID 489025); assay type: functional
[23] = target: T4, Cytochrome P450 2C9; remark: listed apart in the source
[24] = HepG2 cell cytotoxicity, dose response, cytotoxicity control for non-replicating M. tuberculosis project (AID 489018); assay type: functional; conditions: Mycobacterium tuberculosis

Row | SMILES | EC50 [2] | AC50 [3] | CC50 [5] | IC50 [8] | EC50 [9] | EC50 [12] | IC50 [13] | IC50 [14] | other results
1 | CC1=NN(c2ccc(C)cc2C)C(=O)C1C(c1ccccc1)C1C(=O)N(c2ccc(C)cc2C)N=C1C (configuration not stated) | 0.431 µM (active) | 0.523 µM (active) |  |  |  |  |  |  | AC50 [1]: 16.3 µM (active); IC50 [4]: 48.8 µM (active)
2 | COc1ccccc1/C=C/C(=O)c1c(O)nc(C)c2c1CCCC2 |  |  | > 25 µM (active) | 20.3 µM (active) |  |  |  |  | AC50 [6]: inconclusive; IC50 [7]: 50 µM (inactive)
3 | CCC(NC(C)c1ccccc1)=C1C(=O)N(C)C(=O)N(C)C1=O (configuration not stated) |  |  |  |  | 50 µM (active) | 47.9 µM (active) | 2.84 µM (active) | 2.81 µM (active) | IC50 [10]: 8.43 µM (active); EC50 [11]: > 260 µM (inactive); IC50 [15]: 9.12 µM (active)
4 | N=c1c2c(-c3ccccc3)c(-c3ccccc3)n(Cc3ccco3)c2ncn1Cc1ccco1 | 8.76 µM (active) | 6.15 µM (active) |  |  | 0.891 µM (active) | 1.16 µM (active) | 1.72 µM (active) | 2.49 µM (active) | EC50 [16]: 11.9 µM (active); EC50 [17]: 13.5 µM (active); EC50 [18]: 7.73 µM (active); EC50 [19]: 680 nM (active)
5 | CCOc1cc(CNCCO)cc(Br)c1OCc1ccccc1Cl |  |  | 13.8 µM (active) |  | 9.13 µM (active) | 9.8 µM (active) | 1.43 µM (active) | 1.56 µM (active) | IC50 [20]: 18.4 µM (active); CC50 [21]: 19.7 µM (active); CC50 [22]: 11.5 µM (active); AC50 [23]: 28.2 µM (inconclusive); CC50 [24]: 14.1 µM (active)
6 | CCOc1ccc(/C=C/c2nc(C#N)c(NCCCN(C)C)o2)cc1 |  |  | > 25 µM (active) | 21.1 µM (active) |  |  |  |  | 
